Results reported in article PMC6175411, “Reversible optical control of F1Fo‐ATP synthase using photoswitchable inhibitors” (Febs Letters, 2018).

Molecular target: T1, Yarrowia lipolytica F1Fo-ATP synthase (YF1Fo), monomeric (Yarrowia lipolytica, UniProt Q6C326+Q6C338+Q6CFT7)
T1 construct: gene ATP1; complete, genetically unmodified native F1Fo holoenzyme, monomeric form, solubilised in DDM from Y. lipolytica mitochondria; PEG precipitation, glycerol gradient, anion exchange; remaining Fo and peripheral stalk subunits also present; with ATP synthase subunit delta, mitochondrial; ATP synthase subunit epsilon, mitochondrial; ATP synthase subunit 9, mitochondrial (subunit c); ATP synthase subunit a
Assay: malachite green ATP hydrolysis assay
Format: biochemical

T1 sequence (Q6C326 25-536): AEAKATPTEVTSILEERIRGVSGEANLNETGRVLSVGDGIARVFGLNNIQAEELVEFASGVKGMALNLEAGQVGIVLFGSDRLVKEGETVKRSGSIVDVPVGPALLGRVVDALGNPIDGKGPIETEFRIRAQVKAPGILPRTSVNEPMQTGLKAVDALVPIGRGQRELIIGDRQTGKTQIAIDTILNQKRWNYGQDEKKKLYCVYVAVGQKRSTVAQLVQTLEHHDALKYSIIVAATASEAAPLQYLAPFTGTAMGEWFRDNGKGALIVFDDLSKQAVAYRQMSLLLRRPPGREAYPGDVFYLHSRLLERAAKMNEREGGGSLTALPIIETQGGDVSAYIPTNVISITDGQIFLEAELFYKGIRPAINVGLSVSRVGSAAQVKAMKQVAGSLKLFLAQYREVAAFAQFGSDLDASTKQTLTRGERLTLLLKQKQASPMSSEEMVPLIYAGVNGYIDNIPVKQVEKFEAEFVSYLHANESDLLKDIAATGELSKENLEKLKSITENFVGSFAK
T1 sequence (Q6CFT7 33-509): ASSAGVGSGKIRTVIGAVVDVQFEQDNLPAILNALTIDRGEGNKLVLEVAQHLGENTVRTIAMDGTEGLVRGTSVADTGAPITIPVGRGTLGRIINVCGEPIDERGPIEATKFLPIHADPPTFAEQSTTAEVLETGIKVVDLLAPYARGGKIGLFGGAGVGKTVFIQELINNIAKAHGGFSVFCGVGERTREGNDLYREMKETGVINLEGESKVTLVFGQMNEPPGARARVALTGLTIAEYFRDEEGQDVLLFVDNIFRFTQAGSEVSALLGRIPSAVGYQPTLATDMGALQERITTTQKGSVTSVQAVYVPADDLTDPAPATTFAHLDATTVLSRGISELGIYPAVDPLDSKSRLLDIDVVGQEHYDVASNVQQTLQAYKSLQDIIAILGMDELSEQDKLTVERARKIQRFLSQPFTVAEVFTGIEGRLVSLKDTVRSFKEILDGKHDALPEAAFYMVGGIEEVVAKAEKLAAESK
T1 sequence (Q6C338 22-293): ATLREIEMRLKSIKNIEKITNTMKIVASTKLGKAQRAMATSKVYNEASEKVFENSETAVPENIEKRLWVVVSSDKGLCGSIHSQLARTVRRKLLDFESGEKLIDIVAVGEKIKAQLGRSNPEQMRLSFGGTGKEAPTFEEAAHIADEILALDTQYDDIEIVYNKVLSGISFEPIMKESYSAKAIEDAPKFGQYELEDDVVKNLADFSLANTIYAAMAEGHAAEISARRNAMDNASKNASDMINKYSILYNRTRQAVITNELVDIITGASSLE
T1 sequence (Q6C877 25-162 partner): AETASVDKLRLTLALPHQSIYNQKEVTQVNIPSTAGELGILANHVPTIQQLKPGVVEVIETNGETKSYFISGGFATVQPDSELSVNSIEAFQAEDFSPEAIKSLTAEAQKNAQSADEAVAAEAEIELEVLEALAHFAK
T1 sequence (Q37695 whole entry partner): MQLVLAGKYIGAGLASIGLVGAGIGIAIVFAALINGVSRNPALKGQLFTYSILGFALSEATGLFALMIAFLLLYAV

Q: `Oc1ccc(/N=N/c2cc(O)cc(O)c2)cc1` [PIAS-1, 5‐((4‐hydroxyphenyl)diazenyl)benzene‐1,3‐diol] was tested. Which IC50 did it give?
A: 140 ± 56.6 µM

Q: Which IC50 does the source give for `COc1cc(/N=N/c2ccc(O)cc2)cc(OC)c1` [PIAS-2, 4‐((3,5‐dimethoxyphenyl)diazenyl)phenol] here?
A: > 200 µM

Q: Which IC50 does the source give for `COc1cc(/N=N/c2ccc(O)c(OC)c2)cc(OC)c1` [PIAS-3, 4‐((3,5‐dimethoxyphenyl)diazenyl)‐2‐methoxyphenol] here?
A: > 200 µM

Q: `Oc1cc(O)cc(/N=N/c2ccc(O)c(O)c2)c1` [PIAS-4, 4‐((3,5‐dihydroxyphenyl)diazenyl)benzene‐1,2‐diol] was tested. Which IC50 did it give?
A: 14 ± 2.7 µM

Q: Which IC50 does the source give for `Oc1ccc(/C=C/c2cc(O)cc(O)c2)cc1` [resveratrol] here?
A: 185 ± 17.7 µM
